Where a SMILES comes first, the peptide text is derived from it. [ ]: non-standard residue; d: D form.
Assay: Stability in Rat Whole Blood at 37° C., HPLC
Assay type: in vitro ADME
Set-up: half-life: dose or concentration left out as unconfirmed
Settings: for HPLC AREA: rat whole blood 37° C.
Description: Eluent: A=CH3 CN B=Ammonium Acetate 0.01 M pH 6
Stock solution of the peptide is prepared at a concentration of 1.lmg/ml and dissolved in 10% CH3 CN/H2 O.
Rat Whole Blood (EDTA) is spiked with the peptide to give a concentration of […].
Same concentration of 10% CH3 CN/H2 O is also spiked to Rat Whole Blood (EDTA) as a control blank.
Aliquotes of […] are taken (in duplicate) of both spiked and control blanks at the following times:
FOR BLANK BLOOD: 0', 90'.
Each aliquoted samples are centrifuged at 4° C., 4400 rpm for 10 minutes.
3. Extraction Procedure: Liquid--Liquid Extraction
For each plasma sample, 100 μl of plasma are transferred to an eppendorf vial and 200 μl of acetonitrile added to it. The mixture is vortexed for 30 seconds and centrifuged at 4° C., 5 minutes 14000 rpm (Centra MP4R centrifuge, rotor # IEC 851). 200 μl of supernatant are transferred to another vial and evaporated to dryness with the Speed vac Plus (Savant SC-110A). The dried sample is reconstituted with […] of Mobile phase and an aliquote of this is injected to HPLC(high pressure liquid chromatography) for analysis.

SMILES: NCCCC[C@@H](N)C(=O)N[C@@H](CC(N)=O)C(=O)N1CCC[C@H]1C(=O)N[C@@H](Cc1ccc(O)cc1)C(=O)O [PEPTIDE #5, H-(D-Lys)-Asn-Pro-Tyr-OH] (H-[dK]NPY-OH)
- HPLC AREA (0 min): 2471958
- HPLC AREA (5 min): 2362251.2
- HPLC AREA (10 min): 2386700
- HPLC AREA (15 min): 2965610
- HPLC AREA (30 min): 2038700.5
- HPLC AREA (45 min): 2186985.5
- HPLC AREA (60 min): 2194185.5
- HPLC AREA (75 min): 2559208.5
- HPLC AREA (90 min): 2263081.5
- half-life (rat, rat whole blood (EDTA), 37° C.): > 1.5 h
